We go through four compounds from US4376778A, “Antibiotic substances and processes for production thereof” (Meiji Seika Kaisha, Ltd., priority 1979, dated 1983).

Data set [1] relates to Escherichia coli NIHJ JC-2. Description: MIC by agar dilution method, Escherichia coli NIHJ JC-2. The format is cell-based. The following applies: NIHJJC2; Escherichia coli NIHJ JC-2, agar dilution; read-out: Minimum Inhibitory Concentration. An excerpt:
(§1) The minimum inhibitory concentrations of the SF-2080A substance and SF-2080B substance against various microorganisms as measured by the agar dilution method are shown in Table 4 below.
In general terms: In agar dilution the substance is mixed into plates at graded concentrations.

In data set [2] the test system is Trichophyton asteroides. Nature of the data set: MIC by agar dilution method, Trichophyton asteroides. It counts as cell-based. To be noted: read-out: Minimum Inhibitory Concentration.
From the text: as §1

Another data set has as its system Diaporthe citri. Description: MIC by agar dilution method, Diaporthe citri. It counts as cell-based. The following applies: read-out: Minimum Inhibitory Concentration.
From the text: as §1

Data set [3] deals with Aspergillus fumigatus. Description: MIC by plate dilution method, Aspergillus fumigatus. It counts as cell-based. To be noted: read-out: minimum growth inhibitory concentration (MIC). An excerpt:
(§2) The minimum growth inhibitory concentration (MIC) against each test strain according to the plate dilution method is shown below: […]

Data set [4] concerns Klebsiella pneumoniae ATCC 27763. Nature of the data set: MIC by agar dilution method, Klebsiella pneumoniae ATCC 27763. The format is cell-based. The following applies: ATCC27763; Klebsiella pneumoniae ATCC 27763, agar dilution; read-out: Minimum Inhibitory Concentration.
From the text: as §1

Data set [5] concerns Serratia marcescens No. 1. Description: MIC by agar dilution method, Serratia marcescens No. 1. It counts as cell-based. To be noted: Serratia marcescens No. 1, agar dilution; read-out: Minimum Inhibitory Concentration.
From the text: as §1

The subject of data set [6] is Aspergillus fumigatus. Description: MIC by agar dilution method, Aspergillus fumigatus. To be noted: read-out: Minimum Inhibitory Concentration. The format is cell-based.
From the text: as §1

For data set [7], the system named is Shigella dysenteriae Shigae. Nature of the data set: microbe, parasite or virus in culture. The format is cell-based. The following applies: read-out: Minimum Inhibitory Concentration.
The nature of a further data set: Solubility. It counts as physicochemical.
The subject of data set [8] is Bacillus subtilis ATCC 6633. Description: MIC by agar dilution method, Bacillus subtilis ATCC 6633. It counts as cell-based. To be noted: ATCC6633; Bacillus subtilis ATCC 6633, agar dilution; read-out: Minimum Inhibitory Concentration.
From the text: as §1

Data set [9] has as its system Staphylococcus aureus Smith. Nature of the data set: MIC by agar dilution method, Staphylococcus aureus Smith. It counts as cell-based. To be noted: read-out: Minimum Inhibitory Concentration.
From the text: as §1

The subject of another data set is Salmonella typhi O-901-W. Description: MIC by agar dilution method, Salmonella typhi O-901-W. The format is cell-based. To be noted: Salmonella enterica, read-out: Minimum Inhibitory Concentration.
The test system of data set [10] is Staphylococcus aureus FDA 209P JC-1. Nature of the data set: MIC by agar dilution method, Staphylococcus aureus FDA 209P JC-1. The format is cell-based. The following applies: FDA209P; Staphylococcus aureus FDA 209P JC-1, agar dilution; read-out: Minimum Inhibitory Concentration.
From the text: as §1

The subject of data set [11] is Trichophyton interdigitale. Description: MIC by plate dilution method, Trichophyton interdigitale. To be noted: read-out: minimum growth inhibitory concentration (MIC). It counts as cell-based.
From the text: as §2

The subject of data set [12] is Trichophyton interdigital. Nature of the data set: MIC by agar dilution method, Trichophyton interdigital. It counts as cell-based. The following applies: read-out: Minimum Inhibitory Concentration.
From the text: as §1

The next data set deals with Candida albicans C-A-24. Description: MIC by plate dilution method, Candida albicans C-A-24. The format is cell-based. The following applies: CA24; Candida albicans C-A-24, plate dilution; read-out: minimum growth inhibitory concentration (MIC).
From the text: as §2

Data set [13] deals with Cryptococcus neoformans Cr-1. Description: MIC by agar dilution method, Cryptococcus neoformans Cr-1. It counts as cell-based. The following applies: CR1; Cryptococcus neoformans Cr-1, agar dilution; read-out: Minimum Inhibitory Concentration.
From the text: as §1

Data set [14] relates to Trichophyton asteroides. Description: Infection treatment test of guinea pigs infected by Trichophyton asteroides, infected organism cultivation positive ratio. The format is in vivo, Trichophyton asteroides; guinea pig. The following applies: for infected organism cultivation positive ratio: after 8 days treatment, 1% solution, guinea pig. As to the method: (§3) An infection treatment test of guinea pigs infected by a strain of Trichophyton asteroides on their backs was carried out using the liquid preparation having formulation as shown in Table 6.
(§4) Hairs were pulled off from a white Hartly guinea pig (4 guinea pigs per group) at 4 areas of the back thereof (2 areas on each side, 4×6 cm) and a Trichophyton asteroides-floating solution (liquid Sabouraud's culture medium; number of living cells: 2×10^7 /ml) was infected with a brush in an amount of 0.5 ml per each area. After 2 days from the infection, 0.25 ml of a 1% solution of SF-2080A substance (see Table 6) was applied at one area on each side, once a day and continuously for 8 days.
(§5) The same procedure as above was carried out, except using a 1% solution of pyrrolnitrin and a 1% solution of clotrimazole. Guinea pigs so treated were compared with those to which no treatment was applied.
After treatment for 8 days, 3 skin pieces were collected from each affecte area and cultivated on a Sabouraud's agar plate for 7 days to observe the infected organism cultivation positive ratio.

For data set [15], the system named is Escherichia coli K-12 IAM 1264. Description: MIC by agar dilution method, Escherichia coli K-12 IAM 1264. To be noted: IAM1264; Escherichia coli K-12 IAM 1264, agar dilution; read-out: Minimum Inhibitory Concentration. It counts as cell-based.
From the text: as §1

Data set [16] can be described thus: Acute toxicity by intraperitoneal administration in mice. The following applies: mouse, in vivo, ip.
In data set [17] the test system is Trichophyton asteroides. Description: MIC by plate dilution method, Trichophyton asteroides. It counts as cell-based. To be noted: read-out: minimum growth inhibitory concentration (MIC).
From the text: as §2

Data set [18] deals with Staphylococcus epidermidis ATCC 14990. Nature of the data set: MIC by agar dilution method, Staphylococcus epidermidis ATCC 14990. It counts as cell-based. To be noted: ATCC14990; Staphylococcus epidermidis ATCC 14990, agar dilution; read-out: Minimum Inhibitory Concentration.
From the text: as §1

The subject of the next data set is Proteus vulgaris OX-19. Nature of the data set: MIC by agar dilution method, Proteus vulgaris OX-19. The following applies: OX19; Proteus vulgaris OX-19, agar dilution; read-out: Minimum Inhibitory Concentration. The format is cell-based.
From the text: as §1

The subject of another data set is various microorganisms. Nature of the data set: Agar dilution method, various microorganisms (overall statement). The following applies: overall statement in words. It counts as cell-based.
From the text: as §1

Another data set relates to Pyricularia oryzae. Nature of the data set: microbe, parasite or virus in culture. It counts as cell-based. To be noted: read-out: Minimum Inhibitory Concentration.
Data set [19] concerns Trichophyton asteroides. Description: Infection treatment test of guinea pigs infected by Trichophyton asteroides, observation with the naked eye. It counts as in vivo, Trichophyton asteroides; guinea pig. To be noted: for Effect on flush / Effect on scale / Effect on thickening of the affected skin: guinea pig, 1% solution, topical, once a day for 8 days, naked eye. As to the method: as §3, §4, §5

Data set [20] has as its system Pseudomonas aeruginosa IAM 1007. Description: MIC by agar dilution method, Pseudomonas aeruginosa IAM 1007. The format is cell-based. The following applies: IAM1007; Pseudomonas aeruginosa IAM 1007, agar dilution; read-out: Minimum Inhibitory Concentration.
From the text: as §1

The test system of a further data set is fungi. Nature of the data set: Plate dilution method, fungi (overall statement). The format is cell-based. The following applies: overall statement in words.
From the text: as §2

The subject of data set [21] is Cryptococcus neoformans Cr-1. Nature of the data set: MIC by plate dilution method, Cryptococcus neoformans CR-1. It counts as cell-based. The following applies: CR1; Cryptococcus neoformans CR-1, plate dilution; read-out: minimum growth inhibitory concentration (MIC).
From the text: as §2

Setting [22] is: as compared with pyrrolnitrin and clotrimazole, statement in words.

≈ marks a conversion by molar mass, not a printed value. Some results are limits rather than exact numbers.

As for `O=[N+]([O-])c1c[nH]c(Cl)c1Cl` [SF-2080A substance], the MIC was determined as 6.25 mg/L (≈ 34.5 µM) in [1]; 3.12 mg/L (≈ 17.2 µM) in the data set on Trichophyton asteroides [2]; 0.8 mg/L (≈ 4.42 µM) in the data set on Diaporthe citri; 25 mg/L (≈ 138 µM) in the data set on Aspergillus fumigatus [3]; 6.25 mg/L (≈ 34.5 µM) in data set [4]; 6.25 mg/L (≈ 34.5 µM) in [5]. Also, the MIC in the data set with Aspergillus fumigatus [6] stood at 25 mg/L (≈ 138 µM); in data set [7], 3.13 mg/L (≈ 17.3 µM); in data set [8], 1.56 mg/L (≈ 8.62 µM); in data set [9] it was 3.13 mg/L (≈ 17.3 µM); with Salmonella typhi O-901-W, 6.25 mg/L (≈ 34.5 µM); in [10] it was 1.56 mg/L (≈ 8.62 µM). Moreover, the MIC in data set [11] came out at 1.56 mg/L (≈ 8.62 µM); in [12], 1.56 mg/L (≈ 8.62 µM); with Candida albicans C-A-24, 100 mg/L (≈ 553 µM); in data set [13], 25 mg/L (≈ 138 µM); in data set [15] it was 6.25 mg/L (≈ 34.5 µM); in the data set on Trichophyton asteroides [17], 3.12 mg/L (≈ 17.2 µM). Also, the MIC was 3.13 mg/L (≈ 17.3 µM) in [18]; 6.25 mg/L (≈ 34.5 µM) in the data set with Proteus vulgaris OX-19; 0.8 mg/L (≈ 4.42 µM) with Pyricularia oryzae; 6.25 mg/L (≈ 34.5 µM) in data set [20]; 25 mg/L (≈ 138 µM) in [21]. Moreover, the Solubility in acetone entry in the data set “Solubility” is given as “easily soluble”. Besides, the Solubility in chloroform result in “Solubility” was “soluble”. Moreover, the Solubility in methanol entry in “Solubility” is “easily soluble”. The “therapeutic effect, cultivation positive ratio” value with Trichophyton asteroides [14] (setting [22]) was “excellent therapeutic effects”. Moreover, the “decrease in the cultivation positive ratio” value with Trichophyton asteroides [14] (compared with pyrrolnitrin-dosed, clotrimazole-dosed and no treatment groups, in words) was “evident decrease”. The results for the “infected organism cultivation positive ratio” value with Trichophyton asteroides [14] (day of cultivation 3), in the data set on Trichophyton asteroides [14] (day of cultivation 5) and in the data set with Trichophyton asteroides [14] (day of cultivation 7) were 25%, 37% and 37%, respectively. In data set [16] (10 mg/kg), the “acute toxicity, survival” value is reported as “all mice survived”. For the same compound, the “acute toxicity, mortality” value in data set [16] (30 mg/kg) is on record as “all mice died”. Moreover, in the data set with various microorganisms, the “antibacterial/antimicrobial effectiveness against the strains tested” value was “generally effective against all strains of bacteria tested”. The “therapeutic effect, observation with the naked eye” value in the data set on Trichophyton asteroides [19] (setting [22]) is “excellent therapeutic effects”. For the same compound, in the data set on Trichophyton asteroides [19] (compared with 1% pyrrolnitrin and 1% clotrimazole, statement in words), the “treatment effect in thickening of the affected skin, flush, and scale” value is on record as “best treatment effect”. Moreover, in the data set on fungi, the “inhibition of growth of fungi” value is on record as “inhibits the growth of fungi”.

Turning to `O=[N+]([O-])c1c(Cc2cc(Cl)cc(Cl)c2O)[nH]c(Cl)c1Cl` [SF-2080B substance], the MIC in data set [1] is 100 mg/L (≈ 281 µM); in the data set on Trichophyton asteroides [2] it was above 100 mg/L; in the data set with Diaporthe citri, 0.4 mg/L (≈ 1.12 µM); in data set [4], above 100 mg/L; in data set [5], above 100 mg/L; in the data set on Aspergillus fumigatus [6] it was above 100 mg/L. The MIC worked out at 50 mg/L (≈ 140 µM) in [7]; 0.1 mg/L (≈ 0.281 µM) in data set [8]; 0.2 mg/L (≈ 0.562 µM) in data set [9]; 50 mg/L (≈ 140 µM) in the data set with Salmonella typhi O-901-W; 0.2 mg/L (≈ 0.562 µM) in [10]; 100 mg/L (≈ 281 µM) in [12]. Moreover, the MIC in [13] was above 100 mg/L; in data set [15] it was 100 mg/L (≈ 281 µM); in [18] it was 0.1 mg/L (≈ 0.281 µM); with Proteus vulgaris OX-19, 0.78 mg/L (≈ 2.19 µM); with Pyricularia oryzae, 3.13 mg/L (≈ 8.79 µM); in [20], above 100 mg/L. The Solubility in acetone result in “Solubility” is given as “easily soluble”. Also, in the data set “Solubility”, the Solubility in chloroform entry is “soluble”. Besides, in the data set “Solubility”, the Solubility in methanol result is reported as “easily soluble”. The “acute toxicity, fraction of mice that survived” value in data set [16] (100 mg/kg) was 2/3. The “antibacterial/antimicrobial effectiveness against the strains tested” value in the data set with various microorganisms is listed as “very effective against a limited number of strains, but it is less active or lacks toward the others”.

Take `Clc1ccccc1C(c1ccccc1)(c1ccccc1)n1ccnc1` [clotrimazole]: the “infected organism cultivation positive ratio” value in the data set with Trichophyton asteroides [14] (day of cultivation 3) came to 75%. Further, in the data set on Trichophyton asteroides [14] (day of cultivation 5), the “infected organism cultivation positive ratio” value turned out to be 96%. The “infected organism cultivation positive ratio” value with Trichophyton asteroides [14] (day of cultivation 7) worked out at 96%. Besides, in the data set with Trichophyton asteroides [19], the Effect on flush entry is “Ineffective”, the Effect on scale result was “Effective” and the “Effect on thickening of the affected skin” value was “Effective”.

For the compound `O=[N+]([O-])c1c(Cl)cccc1-c1c[nH]cc1Cl` [pyrrolnitrin], in the data set on Trichophyton asteroides [14] (day of cultivation 3), the “infected organism cultivation positive ratio” value stood at 62%. For the same compound, the “infected organism cultivation positive ratio” value with Trichophyton asteroides [14] (day of cultivation 5) amounted to 87%. Further, the “infected organism cultivation positive ratio” value with Trichophyton asteroides [14] (day of cultivation 7) came to 87%. In the data set on Trichophyton asteroides [19], the Effect on flush result is on record as “Ineffective”, the Effect on scale entry is “Ineffective” and the “Effect on thickening of the affected skin” value is “Effective”.
